{"source": "paper PMC9500072", "about": "“Topical application of an irreversible small molecule inhibitor of lysyl oxidases ameliorates skin scarring and fibrosis” (Nature Communications, 2022)", "key": {"Human recombinant LOXL2": {"biological_target": "T1, Human recombinant LOXL2 (Homo sapiens, UniProt Q9Y4K0)", "T1 construct": "purchased R&D Systems", "T1 sequence (Q9Y4K0 26-774)": "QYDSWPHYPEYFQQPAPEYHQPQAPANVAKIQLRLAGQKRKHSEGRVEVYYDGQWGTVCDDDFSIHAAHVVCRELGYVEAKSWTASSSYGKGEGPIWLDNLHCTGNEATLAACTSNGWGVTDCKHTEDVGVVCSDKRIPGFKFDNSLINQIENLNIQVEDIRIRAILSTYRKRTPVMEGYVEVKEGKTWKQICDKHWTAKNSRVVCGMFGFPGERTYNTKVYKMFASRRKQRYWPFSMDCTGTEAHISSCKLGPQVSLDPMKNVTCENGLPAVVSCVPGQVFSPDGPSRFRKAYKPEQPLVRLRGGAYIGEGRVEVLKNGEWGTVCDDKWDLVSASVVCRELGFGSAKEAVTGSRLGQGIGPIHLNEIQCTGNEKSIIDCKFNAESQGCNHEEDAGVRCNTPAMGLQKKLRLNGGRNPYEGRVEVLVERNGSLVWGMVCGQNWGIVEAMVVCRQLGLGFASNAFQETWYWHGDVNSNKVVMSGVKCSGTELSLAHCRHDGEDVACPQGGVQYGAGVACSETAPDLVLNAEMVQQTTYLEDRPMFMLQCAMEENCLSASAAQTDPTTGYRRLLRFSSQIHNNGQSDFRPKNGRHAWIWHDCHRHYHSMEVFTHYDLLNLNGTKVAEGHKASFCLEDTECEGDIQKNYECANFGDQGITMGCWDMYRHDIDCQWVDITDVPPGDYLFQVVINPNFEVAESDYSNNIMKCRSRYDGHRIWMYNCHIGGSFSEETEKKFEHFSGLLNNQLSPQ", "assay": "Amplex Red oxidation assay, LOXL2 inhibition", "type": "biochemical", "method": "For compound oxidation assays, the amount of hydrogen peroxide generated at a single concentration (30 µM) of compound relative to DMSO was measured.\n(§1) The measurement of the enzymatic activity of all lysyl oxidase family members was based on the detection of hydrogen peroxide with an Amplex-Red oxidation assay, as previously described; miniaturized in 384 well formats, with the appropriate combination of substrate and assay buffer for each individual enzyme. After a 30 min pre-incubation of the enzyme at 37 °C with the test compound (or with different incubation times for the time-dependency assay), one volume of reaction mixture containing 120 μM Amplex Red (AR) (Life Technologies), 1.5 U/mL horseradish peroxidase (HRP) (Sigma-Aldrich) and the specific substrate was added to each sample. The relative fluorescence units (RFU) were then measured every 2.5 min for 30 min at 37 °C, excitation 565 nm and emission 590, on a BMG Clariostar Microplate Reader. All the substrates were used at concentrations corresponding to their Km towards the corresponding enzyme, or with a range of different concentrations for the substrate competition experiments.\n(§2) Lysyl oxidases assay buffer contained 1.2 M urea, 50 mM sodium borate buffer, pH 8.2 and 100 µM β-aminoproprionitrile (BAPN, Sigma-Aldrich) was used for low control.\n(§3) Recombinant human LOXL1 was expressed and purified from cDNA (GeneArt) and 10 mM putrescine was used as substrate. Recombinant human and mouse LOXL2 (R&D Systems) were challenged with 5 mM putrescine (Sigma-Aldrich) as the substrate. Rat and dog recombinant LOXL2 were amplified and purified in house from HEK-293 clones kindly provided by Dr. Fernando Rodríguez Pascual, Madrid University, and used in the same conditions as for the human form. 2 mM putrescine was used as the substrate for recombinant human LOXL3 (R&D Systems) and LOXL4 (Dr. Fernando Rodríguez Pascual, university of Madrid, Spain) assays."}, "recombinant human LOXL4": {"biological_target": "T2, recombinant human LOXL4 (Homo sapiens, UniProt Q96JB6)", "T2 construct": "Dr. Fernando Rodríguez Pascual, university of Madrid, Spain (academic provider)", "T2 sequence (Q96JB6 25-756)": "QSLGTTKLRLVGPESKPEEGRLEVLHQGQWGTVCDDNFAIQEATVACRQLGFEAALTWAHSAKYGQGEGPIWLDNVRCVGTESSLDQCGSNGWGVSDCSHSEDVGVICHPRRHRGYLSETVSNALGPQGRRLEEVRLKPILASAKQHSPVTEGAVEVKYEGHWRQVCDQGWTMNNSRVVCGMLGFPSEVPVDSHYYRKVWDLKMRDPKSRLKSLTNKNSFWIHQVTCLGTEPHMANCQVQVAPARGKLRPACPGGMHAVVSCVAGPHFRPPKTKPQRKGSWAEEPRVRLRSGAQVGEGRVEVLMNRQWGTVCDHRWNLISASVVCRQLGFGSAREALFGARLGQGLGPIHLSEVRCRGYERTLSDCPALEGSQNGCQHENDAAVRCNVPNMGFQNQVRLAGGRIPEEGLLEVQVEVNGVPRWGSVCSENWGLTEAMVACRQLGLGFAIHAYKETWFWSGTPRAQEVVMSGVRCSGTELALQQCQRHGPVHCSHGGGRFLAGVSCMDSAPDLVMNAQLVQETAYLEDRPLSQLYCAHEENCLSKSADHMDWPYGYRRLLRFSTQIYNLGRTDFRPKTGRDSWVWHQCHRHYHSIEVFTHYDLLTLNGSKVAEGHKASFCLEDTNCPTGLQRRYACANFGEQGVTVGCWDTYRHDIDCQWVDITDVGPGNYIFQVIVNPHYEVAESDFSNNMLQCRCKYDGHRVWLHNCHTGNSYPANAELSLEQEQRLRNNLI", "assay": "Amplex Red oxidation assay, LOXL4 inhibition", "type": "biochemical", "method": "as §1, §2, §3"}, "[1]": {"conditions": "30 min pre-incubation, read-out: LOXL2 IC50"}, "[2]": {"conditions": "30 min pre-incubation, read-out: rh LOXL4 IC50"}, "[3]": {"conditions": "log conc -4.5229, read-out: Fig 2A inhibition (mean)"}, "[4]": {"conditions": "log conc -5, read-out: Fig 2A inhibition (mean)"}, "[5]": {"conditions": "log conc -5.4771, read-out: Fig 2A inhibition (mean)"}, "[6]": {"conditions": "log conc -5.9542, read-out: Fig 2A inhibition (mean)"}, "[7]": {"conditions": "log conc -6.4313, read-out: Fig 2A inhibition (mean)"}, "[8]": {"conditions": "log conc -6.9083, read-out: Fig 2A inhibition (mean)"}, "[9]": {"conditions": "log conc -7.3851, read-out: Fig 2A inhibition (mean)"}, "[10]": {"conditions": "log conc -7.8633, read-out: Fig 2A inhibition (mean)"}, "[11]": {"conditions": "log conc -8.3372, read-out: Fig 2A inhibition (mean)"}, "[12]": {"conditions": "log conc -8.8239, read-out: Fig 2A inhibition (mean)"}, "[13]": {"conditions": "log conc -9.301, read-out: Fig 2A inhibition (mean)"}, "[14]": {"conditions": "read-out: Human Recombinant LOXL4 pIC50±SD (converted)"}}, "note": "Read-outs that look alike come from different tables or passages of the source.", "data": [{"smiles": "N#CCCN", "note": "[BAPN, β-aminoproprionitrile, reference compound]", "values": [{"measurement": "Human Recombinant LOXL2 pIC50±SD", "setting": "Human recombinant LOXL2", "value": "6.4 ± 0.1"}, {"measurement": "IC50", "setting": "Human recombinant LOXL2; [1]", "value": 390, "unit": "nM"}, {"measurement": "Human Recombinant LOXL4 pIC50±SD", "setting": "recombinant human LOXL4", "value": "6.6 ± 0.1"}, {"measurement": "IC50", "setting": "recombinant human LOXL4; [2]", "value": 280, "unit": "nM"}]}, {"smiles": "NC/C=C(\\F)CS(=O)(=O)c1ccccc1", "note": "[PXS-4787]", "values": [{"measurement": "IC50", "setting": "Human recombinant LOXL2; [1]", "value": 600, "unit": "nM"}, {"measurement": "inhibition at 30 µM", "setting": "Human recombinant LOXL2; [3]", "value": 98.4, "unit": "%"}, {"measurement": "inhibition at 10 µM", "setting": "Human recombinant LOXL2; [4]", "value": 95.6, "unit": "%"}, {"measurement": "inhibition at 3.333 µM", "setting": "Human recombinant LOXL2; [5]", "value": 87.6, "unit": "%"}, {"measurement": "inhibition at 1.111 µM", "setting": "Human recombinant LOXL2; [6]", "value": 67.7, "unit": "%"}, {"measurement": "inhibition at 0.3704 µM", "setting": "Human recombinant LOXL2; [7]", "value": 40.3, "unit": "%"}, {"measurement": "inhibition at 0.1235 µM", "setting": "Human recombinant LOXL2; [8]", "value": 18.8, "unit": "%"}, {"measurement": "inhibition at 0.0412 µM", "setting": "Human recombinant LOXL2; [9]", "value": 9.34, "unit": "%"}, {"measurement": "inhibition at 0.0137 µM", "setting": "Human recombinant LOXL2; [10]", "value": 2.56, "unit": "%"}, {"measurement": "inhibition at 0.0046 µM", "setting": "Human recombinant LOXL2; [11]", "value": 0.119, "unit": "%"}, {"measurement": "inhibition at […]", "setting": "Human recombinant LOXL2; [12]", "value": -0.297, "unit": "%"}, {"measurement": "inhibition at 0.0005 µM", "setting": "Human recombinant LOXL2; [13]", "value": -1.19, "unit": "%"}, {"measurement": "IC50", "setting": "Human recombinant LOXL2; read-out: Human Recombinant LOXL2 pIC50±SD (converted)", "value": 631, "unit": "nM"}, {"measurement": "IC50", "setting": "recombinant human LOXL4; [2]", "value": 220, "unit": "nM"}, {"measurement": "inhibition at 30 µM", "setting": "recombinant human LOXL4; [3]", "value": 102, "unit": "%"}, {"measurement": "inhibition at 10 µM", "setting": "recombinant human LOXL4; [4]", "value": 101, "unit": "%"}, {"measurement": "inhibition at 3.333 µM", "setting": "recombinant human LOXL4; [5]", "value": 98.6, "unit": "%"}, {"measurement": "inhibition at 1.111 µM", "setting": "recombinant human LOXL4; [6]", "value": 89.8, "unit": "%"}, {"measurement": "inhibition at 0.3704 µM", "setting": "recombinant human LOXL4; [7]", "value": 66.3, "unit": "%"}, {"measurement": "inhibition at 0.1235 µM", "setting": "recombinant human LOXL4; [8]", "value": 36.5, "unit": "%"}, {"measurement": "inhibition at 0.0412 µM", "setting": "recombinant human LOXL4; [9]", "value": 14.1, "unit": "%"}, {"measurement": "inhibition at 0.0137 µM", "setting": "recombinant human LOXL4; [10]", "value": 8.84, "unit": "%"}, {"measurement": "inhibition at 0.0046 µM", "setting": "recombinant human LOXL4; [11]", "value": 2.39, "unit": "%"}, {"measurement": "inhibition at […]", "setting": "recombinant human LOXL4; [12]", "value": 0.738, "unit": "%"}, {"measurement": "inhibition at 0.0005 µM", "setting": "recombinant human LOXL4; [13]", "value": -0.645, "unit": "%"}, {"measurement": "IC50", "setting": "recombinant human LOXL4; [14]", "value": 200, "unit": "nM"}]}, {"smiles": "NC/C=C(\\F)C(F)(F)S(=O)(=O)c1ccccc1", "note": "[PXS-6302]", "values": [{"measurement": "Human Recombinant LOXL2 pIC50±SD", "setting": "Human recombinant LOXL2", "value": "6.4 ± 0.2"}, {"measurement": "IC50", "setting": "Human recombinant LOXL2; [1]", "value": 430, "unit": "nM"}, {"measurement": "IC50", "setting": "recombinant human LOXL4; [2]", "value": 320, "unit": "nM"}, {"measurement": "IC50", "setting": "recombinant human LOXL4; [14]", "value": 316, "unit": "nM"}]}]}
